Consider 23 compounds from patent US9561228B2 (Celgene Avilomics Research, Inc., priority 2013, dated 2017).

This assay has as its system ERK1/2 phosphorylation of p90RSK in HT29 cells. The assay can be described thus: pRSK MSD Assay in HT29 cells. To be noted: Homo sapiens, HT-29, read-out: ERK1/ERK2 PRSK MSD HT29 EC50. The assay is classed as cell-based. As for the experimental part: The protocol below describes an assay to measure the kinase activity of ERK1/2 to phosphorylate a substrate, p90RSK, in the presence or absence of a test compound. This experiment was conducted using a Mesoscale Discovery plate. The day before the assay, HT29 cells were split and plated at 50,000 cells/well in complete growth media. After allowing cells to adhere, the media was removed and replaced with media containing 0.1% FBS and incubated overnight. Blank MSD plates (Mesoscale Discovery, Cat # L15XA3) were coated with 25 μl/well RSK capture antibody (BD Biosciences, Cat. #610226) and incubated at 4° C. overnight, then blocked with 150 μl of 3% BSA solution. The next day, the media from the cell culture plate was removed and replaced with 100 μl of media containing a test compound and incubated for 120 minutes at 37° C. The media was removed and replaced with 55 μl per well of lysis buffer with protease inhibitors (Roche Biosciences, Cat. #11836170001) and phosphatase inhibitors (Sigma-Aldrich, Cat. # P-0044 and P-5726), followed by incubation at 4° C. for 30 minutes. 50 μl of lysate was transferred to a blocked MSD plate, followed by incubation at room temperature for 2 hours under constant shaking. The plate was washed 3 times with MSD wash buffer (Mesoscale Discovery, Cat. # R617TX), and 25 μl/well phospho-RSK (pRSK) detection antibody (Cell Signaling Technology, Cat. #9335) was added with Sulfo-tagged detection antibody (Mesoscale Discovery, Cat. # R32AB-1) diluted in 1% BSA in MSD wash buffer. This mixture was incubated for 1 hour at room temperature under constant shaking. The plate was washed 3 times, and 150 μl 1×MSD read buffer was added, followed by signal detection in an MSD plate reader.

Structures are written as SMILES. Bounds are passed on as bounds.

With `C=CC(=O)Nc1ccccc1CNc1nc(N[C@H]2CCCN(C(=O)CO)C2)ncc1C(F)(F)F` [Compound I-45, (S)—N-(2-(((2-((1-(2-Hydroxyacetyl)piperidin-3-yl)amino)-5-(trifluoromethyl)pyrimidin-4-yl)amino)methyl)phenyl)acrylamide], the EC50 was more than 1000 nM.
The same measure for `C=C(C)S(=O)(=O)Nc1cc(C)ccc1Nc1nc(NC2CCC(=O)CC2)ncc1C(F)(F)F` [Compound I-53, N-(5-Methyl-2-((2-((4-oxocyclohexyl)amino)-5-(trifluoromethyl)pyrimidin-4-yl)amino)phenyl)prop-1-ene-2-sulfonamide]: more than 1000 nM; for `C=C(C)S(=O)(=O)Nc1cc(F)ccc1Nc1nc(N[C@H]2CCCN(C(=O)CO)C2)ncc1C(F)(F)F` [Compound I-54, (S)—N-(5-Fluoro-2-((2-((1-(2-hydroxyacetyl)piperidin-3-yl)amino)-5-(trifluoromethyl)pyrimidin-4-yl)amino)phenyl)prop-1-ene-2-sulfonamide]: more than 1000 nM; for `C=CC(=O)N(C)c1ccccc1Nc1nc(Nc2cc(C(=O)NOC)ccc2C#N)ncc1Cl` [Compound I-197, 3-((5-chloro-4-((2-(N-methylacrylamido)phenyl)amino)pyrimidin-2-yl)amino)-4-cyano-N-methoxybenzamide]: more than 1000 nM.
Turning to `C=CC(=O)N[C@H]1CCCC1Nc1nc(N[C@H]2CCCN(C(C)=O)C2)ncc1C(F)(F)F` (stereo in doubt) [Compound I-24, N-((1S,2S)-2-((2-(((S)-1-Acetylpiperidin-3-yl)amino)-5-(trifluoromethyl)pyrimidin-4-yl)amino)cyclopentyl)acrylamide], the EC50 was more than 1000 nM.
Regarding `C=C(C)C(=O)Nc1ccccc1Nc1nc(Nc2cc(C(N)=O)ccc2C)ncc1Cl` [Compound I-217, 3-((5-chloro-4-((2-methacrylamidophenyl)amino)pyrimidin-2-yl)amino)-4-methylbenzamide], the EC50 was more than 1000 nM.
For the compound `CC#CC(=O)Nc1ccccc1Nc1nc(N[C@H]2CCCN(C(=O)CO)C2)ncc1C(F)(F)F` [Compound I-29, (S)—N-(2-((2-((1-(2-Hydroxyacetyl)piperidin-3-yl)amino)-5-(trifluoromethyl)pyrimidin-4-yl)amino)phenyl)but-2-ynamide], the EC50 was more than 1000 nM.
Regarding `C=CC(=O)Nc1cc(C)ccc1Nc1nc(N[C@H]2CCCN(C(=O)c3ccccc3)C2)ncc1C(F)(F)F` [Compound I-44, (S)—N-(2-((2-((1-Benzoylpiperidin-3-yl)amino)-5-(trifluoromethyl)pyrimidin-4-yl)amino)-5-methylphenyl)acrylamide], the EC50 is more than 1000 nM.
The value for `CC#CC(=O)N[C@@H]1CCCC[C@H]1Nc1nc(N[C@H]2CCCN(C(=O)CO)C2)ncc1C(F)(F)F` [Compound I-33, N-((1R,2R)-2-((2-(((S)-1-(2-Hydroxyacetyl)piperidin-3-yl)amino)-5-(trifluoromethyl)pyrimidin-4-yl)amino)cyclohexyl)but-2-ynamide] was more than 1000 nM; that for `C=CC(=O)Nc1ccccc1Nc1nc(N[C@H]2CCCN(C(=O)C3CC3)C2)ncc1Cl` [Compound I-136, (S)—N-(2-((5-chloro-2-((1-(cyclopropanecarbonyl)piperidin-3-yl)amino)pyrimidin-4-yl)amino)phenyl)acrylamide] was 501 to 999 nM.
The same measure for `C=CC(=O)Nc1cc(Cl)ccc1Nc1nc(Nc2cc(Cl)nc(OC)c2)ncc1Cl` [Compound I-247, N-(5-chloro-2-((5-chloro-2-((2-chloro-6-methoxypyridin-4-yl)amino)pyrimidin-4-yl)amino)phenyl)acrylamide]: 101 to 500 nM; for `Cc1ccc(C(N)=O)cc1Nc1ncc(Cl)c(Nc2ccccc2NC(=O)/C=C/CN(C)C)n1` [Compound I-218, (E)-3-((5-chloro-4-((2-(4-(dimethylamino)but-2-enamido)phenyl)amino)pyrimidin-2-yl)amino)-4-methylbenzamide]: more than 1000 nM.
On to `CC(=O)N1CCC[C@H](Nc2ncc(C(F)(F)F)c(N[C@@H]3[C@H](C(N)=O)[C@H]4C=C[C@@H]3C4)n2)C1` [Compound I-309, (1R,2R,3S,4S)-3-((2-(((S)-1-acetylpiperidin-3-yl)amino)-5-(trifluoromethyl)pyrimidin-4-yl)amino)bicyclo[2.2.1]hept-5-ene-2-carboxamide], for which the EC50 was more than 1000 nM.
Consider `CC(C)=CC(=O)c1ccccc1Oc1nc(Nc2cc(C(N)=O)ccc2C)ncc1Cl` [Compound I-223, 3-((5-chloro-4-(2-(3-methylbut-2-enoyl)phenoxy)pyrimidin-2-yl)amino)-4-methylbenzamide], for which the EC50 was more than 1000 nM.
`CC(C)=CC(=O)c1ccccc1Oc1nc(Nc2ccc(F)cc2C)ncc1Cl` [Compound I-222, 1-(2-((5-chloro-2-((4-fluoro-2-methylphenyl)amino)pyrimidin-4-yl)oxy)phenyl)-3-methylbut-2-en-1-one]: the EC50 was more than 1000 nM.
As for `C=CC(=O)Nc1ccccc1Nc1nc(N[C@@H]2CCN(C(=O)CO)C2)ncc1C(F)(F)F` [Compound I-62, (R)—N-(2-((2-((1-(2-Hydroxyacetyl)pyrrolidin-3-yl)amino)-5-(trifluoromethyl)pyrimidin-4-yl)amino)phenyl)acrylamide], the EC50 is more than 1000 nM.
With `C=CS(=O)(=O)N[C@@H]1CCCC[C@H]1Nc1nc(N[C@H]2CCCN(C(=O)CO)C2)ncc1C(F)(F)F` [Compound I-36, N-((1R,2R)-2-((2-(((S)-1-(2-Hydroxyacetyl)piperidin-3-yl)amino)-5-(trifluoromethyl)pyrimidin-4-yl)amino)cyclohexyl)ethenesulfonamide], the EC50 was in the range of 501 to 999 nM.
Turning to `C=CC(=O)Nc1ccccc1Nc1nc(N[C@@H]2CCN(C(=O)OC)C2)ncc1C(F)(F)F` [Compound I-61, (R)-Methyl 3-((4-((2-Acrylamidophenyl)amino)-5-(trifluoromethyl)pyrimidin-2-yl)amino)pyrrolidine-1-carboxylate], the EC50 was more than 1000 nM.
The value for `C=CC(=O)Nc1ccccc1Nc1nc(N[C@H]2CCCN(C(=O)C(C)C)C2)ncc1Cl` [Compound I-137, (S)—N-(2-((5-chloro-2-((1-isobutyrylpiperidin-3-yl)amino)pyrimidin-4-yl)amino)phenyl)acrylamide] was 501 to 999 nM; that for `CC(C)=CC(=O)c1ccccc1Oc1nc(Nc2cc(C(N)=O)ccc2C)ncc1C(N)=O` [Compound I-271, 2-((5-carbamoyl-2-methylphenyl)amino)-4-(2-(3-methylbut-2-enoyl)phenoxy)pyrimidine-5-carboxamide] was more than 1000 nM.
`C=CC(=O)Nc1ccccc1Nc1nc(N[C@H]2CCCN(C(=O)OC)C2)ncc1C(F)(F)F` [Compound I-17, (S)-Methyl 3-((4-((2-acrylamidophenyl)amino)-5-(trifluoromethyl)pyrimidin-2-yl)amino) piperidine-1-carboxylate]: the EC50 lay in the range of 101 to 500 nM.
The same measure for `C/C=C/C(=O)Nc1ccccc1Nc1nc(Nc2cc(C(N)=O)ccc2C)ncc1Cl` [Compound I-219, (E)-3-((4-((2-(but-2-enamido)phenyl)amino)-5-chloropyrimidin-2-yl)amino)-4-methylbenzamide]: more than 1000 nM; for `C=CC(=O)Nc1cc(C)ccc1Nc1nc(Nc2cc(Cl)nc(OC)c2)ncc1Cl` [Compound I-244, N-(2-((5-chloro-2-((2-chloro-6-methoxypyridin-4-yl)amino)pyrimidin-4-yl)amino)-5-methylphenyl)acrylamide]: 101 to 500 nM.
